Reference: patent US20250161290A1, “CO-CRYSTALS” (CereSpir Incorporated, priority 2021, published 2025)
Converted amounts (≈) assume the structure as drawn. “Also recorded” adds a separate entry of the source.

What was measured:
[1] = test system: rats after TBI; conditions: cited from earlier work
[2] = XRPD of pre-exposed and post-exposed DVS samples (solid form stability); type: physicochemical; conditions: two DVS sorption/desorption cycles, 5-95% RH, 25° C.
Procedure: X-ray powder diffraction analyses are obtained using a BRUKER D8 ADVANCE equipped with a Cu radiation source operated at 40 kV and 40 mA (λ=1.54 Å after Ni filtering) configured in a Bragg-Brentano geometry, equipped with a 90-position AUTO-CHANGER and a silicon strip detector (SSD160-2). A coupled theta-two theta continuous PSD (Position Sensitive Device) fast scan from 4 to 40 degrees are collected over approximately 32 minutes (0.5 sec/0.01° step). A sample is placed onto a polished zero-background silicon wafer by gently distributing onto the flat surface and is analyzed as a flat plate specimen.
(§1) Samples are analyzed using a TA Instruments Q5000SA gravimetric water sorption analyzer. The relative humidity (RH) is adjusted in 10% RH increments between 5-95% (±1% RH) at 25° C. (±0.5%° C.). The mass of a sample is continuously monitored and recorded with respect to RH and time with criteria for mass equilibrium set as a percent mass change <0.0100 for 5 minutes with a time limit of 720 minutes per step. The humidity is controlled by mixing dry and wet nitrogen streams with a total flow rate of 200 mL/min. The instrument control and data analysis are operated under Advantage for Q Series and Universal Analysis software, respectively.

[3] = test system: patients with mild cognitive impairment (MCI); conditions: listed as itanapraced, cited from earlier work
[4] = Consolidated qualitative solubility results (Tables 6 and 8); conditions: for consolidated solubility result: Table 6; for qualitative solvent solubility overlaid with cocrystallization screens' results: Table 8, numbers are molar concentrations pending investigation
[5] = Solubility assessment of CSP-1103 in organic solvents (qualitative); type: physicochemical; conditions: organic solvent or mixture, thermodynamic from solid, qualitative solubility at 0.2 M, gentle heating 45° C. 1 minute if required
Procedure: The solubility assessment of CSP-1103 was then performed. Approximately 0.05 mmol of CSP-1103 was weighed out into a 1-dram vial, enough solvent was added to achieve a 0.2 M concentration, and if required, gentle heating was applied at 45° C. for 1 minute. […] After 12 hours, observations were made to determine if the API had remained in solution.

[6] = in vivo, cited from earlier work
[7] = Coformer and CSP-1103 aqueous solubility assessment (qualitative); type: physicochemical; conditions: water, thermodynamic from solid, 0.05 M aqueous concentration, gentle heating at 45° C. for 1 minute
Procedure: In a 1-dram vial, enough solvent was added to achieve a 0.05 M aqueous concentration along with some gentle heating at 45° C. for 1 minute to determine if the material would completely dissolve. After 24 hours, observations were made to determine if the material had remained in solution.

[8] = Thermogravimetric analysis (TGA), degradation onset; type: physicochemical; conditions: 10° C. per minute, nitrogen purge
Procedure: TGA data are collected using a TA Instruments Discovery TGA equipped with an autosampler. Typically, 2-5 mg of sample is placed in a pre-tared, Tzero aluminum pan either as a hermetically sealed pan which would be automatically punched open before sample loading for analysis, or as an open pan. A 10° C. per minute ramp rate from ambient temperature to 375° C. using a 25 mL/min nitrogen purge is used. The instrument control and data analysis are operated under TRIOS software.

[9] = Solubility assessment of CSP-1103 in organic solvents (qualitative); type: physicochemical; conditions: organic solvent or mixture, thermodynamic from solid
[10] = Dynamic Vapor Sorption (DVS) water sorption/desorption; type: physicochemical; conditions: for Mass Change: 25° C.
Procedure: as §1

[11] = physchem
[12] = Phase 2, MCI patients, CSF / brain

Compound: O=C(O)C1(c2ccc(-c3ccc(Cl)c(Cl)c3)c(F)c2)CC1 [CSP-1103, 1-(3′,4′-dichloro-2-fluoro[1,1′-biphenyl]-4-yl)-cyclopropanecarboxylic acid]
- accumulation of hypertrophic microglia in the injured brain [1]: prevented the accumulation of hypertrophic microglia
- acute lung injury [1]: attenuated
- neurological injury [1]: attenuated
- solid form change after DVS exposure (XRPD pre- vs post-exposed) [2]: no solid form change
- solid form change after DVS exposure (XRPD pre- vs post-exposed) ([2]; listed as CSP): no solid state form changes
- safety and tolerability ([3]; Phase 2, MCI patients treated up to two years): good safety and tolerability; also recorded: well tolerated
- TNF-α (neuroinflammatory mediator) [3, 12]: beneficial dose-related CSF differences; also recorded: dose-related statistically significant reductions
- soluble CD40 ligand (neuroinflammatory mediator) [3, 12]: beneficial dose-related CSF differences; also recorded: dose-related statistically significant reductions
- total tau (marker of neurodegeneration) [3, 12]: beneficial dose-related CSF differences; also recorded: dose-related statistically significant reductions
- cognitive function ([3]; throughout the duration of the trial): stable cognition; also recorded: stable cognitive function
- consolidated solubility result ([4]; MTBE): ✓
- qualitative solvent solubility overlaid with cocrystallization screens' results ([4]; acetone (BP 56° C.)): 50 mM
- consolidated solubility result ([4]; acetone): ✓
- qualitative solvent solubility overlaid with cocrystallization screens' results ([4]; ethanol (BP 79° C.)): 50 mM
- consolidated solubility result ([4]; ethanol): ✓
- consolidated solubility result ([4]; ethyl acetate): ✓
- qualitative solvent solubility overlaid with cocrystallization screens' results ([4]; methanol (BP 65° C.)): 50 mM
- consolidated solubility result ([4]; methanol): ✓
- solubility ([5]; MTBE): < 200 mM
- solubility ([5]; acetone): < 200 mM
- solubility ([5]; acetonitrile): < 200 mM
- solubility ([5]; ethanol): < 200 mM
- oral bioavailability ([6]; po): good oral bioavailability
- penetration into the brain [6]: substantial penetration into the brain
- plasma half-life [6]: long plasma half-life
- solubility [7]: < 50 mM
- degradation start by TGA [8]: > 200 °C
- solubility ([9]; MTBE, qualitative solubility at 0.1 M, gentle heating if required): > 100 mM
- solubility ([9]; acetone, qualitative solubility at 0.05 M, gentle heating if required): > 50 mM
- solubility ([9]; acetone, qualitative solubility at 0.1 M, gentle heating if required): < 100 mM
- solubility ([9]; acetonitrile, qualitative solubility at 0.05 M, gentle heating if required): < 50 mM
- solubility ([9]; acetonitrile, qualitative solubility at 0.1 M, gentle heating if required): < 100 mM
- solubility ([9]; ethanol, qualitative solubility at 0.05 M, gentle heating if required): > 50 mM
- solubility ([9]; ethanol, qualitative solubility at 0.1 M, gentle heating if required): < 100 mM
- solubility ([9]; ethyl acetate, qualitative solubility at 0.1 M, gentle heating if required): > 100 mM
- solubility ([9]; ethyl acetate, qualitative solubility at 0.2 M, gentle heating 45° C. 1 minute if required): < 200 mM
- solubility ([9]; methanol, qualitative solubility at 0.05 M, gentle heating if required): > 50 mM
- solubility ([9]; methanol, qualitative solubility at 0.1 M, gentle heating if required): < 100 mM
- solubility ([9]; methanol, qualitative solubility at 0.2 M, gentle heating 45° C. 1 minute if required): < 200 mM
- Mass Change ([10]; Cycle 1 of 2, Adsorption, RH 5 to 95%): 1.10%
- Mass Change ([10]; Cycle 1 of 2, Desorption, RH 95 to 5%): −1.11%
- Mass Change ([10]; Cycle 2 of 2, Adsorption, RH 5 to 95%): 1.13%
- Mass Change ([10]; Cycle 2 of 2, Desorption, RH 95 to 5%): −1.13%
- hygroscopicity classification ([10]; at 95% RH, Ph. Eur. 9.0 (slightly: <2% and ≥0.2%; non: <0.2%)): slightly hygroscopic
- average water sorbed or desorbed ([10]; between 5-95% RH): 1.1±0.0%
- solubility ([11]; MTBE, organic solvent or mixture): 100 mM (≈ 32.5 mg/mL)
- solubility ([11]; acetonitrile, organic solvent or mixture): < 50 mM
- solubility ([11]; ethyl acetate, organic solvent or mixture): 100 mM (≈ 32.5 mg/mL)
- solubility ([11]; water): < 50 mM
